Tests used:
skin of the subject = assay: Determination of effective treatment time for PDT/IPL/RF rejuvenation therapy after ALA application; type: in vivo, human
Source text: ALA, was applied to the skin of the subject. The light used for PDT was IPL comprising a variety of wavelengths, with an intensity of 26 J. PDT/IPL/RF was applied at various time points following ALA application. […] The increase in efficacy leveled off at hours 5 and 6.
A 4-hour treatment with ALA was required for significant efficacy of PDT/IPL/RF. A time course of this length may be accompanied by increases in erythema and other side effects. In order to minimize side effects, it was determined that a 1-hour treatment was preferred. The 1-hour treatment requires repeated administrations for maximum efficacy, but prevents skin breakdown. With its potential for increased side effects, the 4-hour treatment should be reserved for severe premalignant cases only.

[1] = test system: skin of patients (keratoses, sun damage, rosacea, melasma, wrinkles); assay: Treatment of patients with PDT/IPL/RF after ALA application; type: in vivo, human
Method: Four patients were treated with a combination of PDT, IPL, and RF. ALA was applied to the patients at time 0.
Patient 1 received one PDT/RF/IPL peel treatment at full energy (26 J) 4 hours after application of ALA.
Patients 2, 3, and 4 received four sessions of PDT/RF/IPL photofacial treatments at full energy (26 J) 1 hour after application of ALA.

[2] = Patient 1, one PDT/RF/IPL peel treatment at 26 J, 4 hours after ALA

Q: With `NCC(=O)CCC(=O)O` [ALA, 5-aminolevulinic acid] as the compound, how does the “efficacy of PDT/IPL/RF versus standard IPL/RF alone” value (skin of the subject; PDT/IPL/RF applied 15 minutes after ALA application, IPL 26 J, human test subject) read?
A: The value was “no more efficacious than standard IPL/RF alone”.

Q: And the “efficacy of PDT/IPL/RF over RF alone” value (skin of the subject; PDT/IPL/RF applied 30 minutes after ALA application, IPL 26 J)?
A: Its value is “minimal increase in efficacy”.

Q: And the “efficacy of PDT/IPL/RF over RF alone” value (skin of the subject; PDT/IPL/RF applied 45 minutes after ALA application, IPL 26 J)?
A: Its value is “minimal increase in efficacy”.

Q: And the “efficacy of PDT/IPL/RF” value (skin of the subject; PDT/IPL/RF applied 1 hour after ALA application, IPL 26 J)?
A: Its value is “noticeable increase in efficacy”.

Q: And the “efficacy of PDT/IPL/RF” value (skin of the subject; PDT/IPL/RF applied 2 hours after ALA application, IPL 26 J)?
A: Its value is “noticeable increase in efficacy”.

Q: And the “efficacy of PDT/IPL/RF” value (skin of the subject; PDT/IPL/RF applied 4 hours after ALA application, IPL 26 J)?
A: Its value is “largest increase of any point in time”.

Q: And the “efficacy of PDT/IPL/RF” value (skin of the subject; PDT/IPL/RF applied 5 hours after ALA application, IPL 26 J)?
A: The value was “leveled off”.

Q: And the “efficacy of PDT/IPL/RF” value (skin of the subject; PDT/IPL/RF applied 6 hours after ALA application, IPL 26 J)?
A: The value was “leveled off”.

Q: What about the “ALA treatment time required for significant efficacy of PDT/IPL/RF” value (skin of the subject; human test subject) of the same compound?
A: The value was 4 h.

Q: And the effect on lentigines ([1]; 4-hour treatment, Patient 1)?
A: The effect on lentigines was “selective destruction of lentigines”.

Q: And the “effect on atypia and keratoses” value [1, 2]?
A: Its value is “significant darkening and slough of atypia and keratoses”.

Q: And the effect on wrinkles [1, 2]?
A: The effect on wrinkles was “diminution of wrinkles”.

Q: And the skin rejuvenation [1, 2]?
A: Its skin rejuvenation is “generalized skin rejuvenation”.

Q: And the “effect on sun damage, rosacea, and melasma” value ([1]; Patients 2, 3 and 4, four sessions PDT/RF/IPL photofacial at 26 J, 1 hour after ALA)?
A: The value was “decrease in sun damage, rosacea, and melasma”.

— patent US20050209193A1, “Method for enhanced photodynamic therapy” (priority 2003, published 2005)
